# Experimental data taken from US20080089851A1, “Brown Algae Cell Lyophilisate, Method For The Obtention Thereof” (BIOTECHMARINE, priority 2005, published 2008).
# Key:
# [1] = tested on: human keratinocytes in senescence; test: Transport of glucids (glucose), human keratinocytes in senescence; format: cell-based; conditions: for Capture of [^3H]3-O-MG: Phloretin 0.25 mM
# Method: The obtained microsomes from human keratinocytes in culture were washed 3 times with a PBS buffer without glucose then pre-incubated in 1 ml of the same buffer for 30 minutes at 37° C. Subsequently, this solution was discarded and the microsomes placed into the glucose-free PBS buffer containing 3-0-Methyl glucose (MG) and [^3H] 3-0-MG with stirring in a water-bath at 37° C. The capture of 3-0-MG is stopped by addition of 1 ml of cold PBS containing cytochalasine B. The kinetics of incubation was performed between 30 and 120 seconds. The microsomes were further rinsed 2 times with PBS, then dissolved in NaOH (1M) at 4° C., over night. The radioactivity was determined with a scintillation counter. 7.3-Assessment of the Rate of Transport of Macromolecules at the Level of Human Keratinocytes in Senescence The senescence is a phenomenon of cellular aging, where the cells are arrested in the phase G1 of the cell cycle and never enter the synthesis phase leading to the cell division. Senescent cells are characterized by their slow metabolism at synthesis and transport of macromolecules levels. The cells in culture deprived of serum stop their growth, but continue to progress through the cell cycle until they reach the phase G1. The applied method allowed to obtain, from a human skin biopsy, primary cultures of keratinocytes. The assays were performed on keratinocytes, between the 8th and the 10th passage, in order to ensure the presence of senescent cells at control cells level. The keratinocytes were seeded in multiwell plates (6 wells) at a rate of 10^5 cells per well in 3 ml of culture medium […] supplemented with EGF, hydrocortisone, insulin and […]. Afterwards they are maintained for 5 days in incubator under CO2. 7.3.1-Transport of Glucids (Glucose) The assay was carried out in triplicate on human keratinocytes in senescence. • Charge 1: negative control not receiving any product. • Charge 2: positive control (0.25 mM Phloretin) • Charge 3: treated receiving the investigated product • Charges 6-8: treated with 0.25 mM phloretin and with the investigated product (3 concentrations) The treatment of keratinocytes with the BB product in the presence and absence of 0.25 mM phloretin was performed for 20 minutes at 37° C. The membrane microsomes were separated by differential centrifugation. The same protocol of capture of [3H] 3-0-Methyl-Glucose was applied to the determination of the rate of transport of glucose (cf. 6.1.1).
# [2] = tested on: normal human keratinocytes; test: Transport of glucides (glucose), normal human keratinocytes; format: cell-based; conditions: for Capture of [^3H]3-O-MG: Phloretin 0.25 mM
# Method: The obtained microsomes from human keratinocytes in culture were washed 3 times with a PBS buffer without glucose then pre-incubated in 1 ml of the same buffer for 30 minutes at 37° C. Subsequently, this solution was discarded and the microsomes placed into the glucose-free PBS buffer containing 3-0-Methyl glucose (MG) and [^3H] 3-0-MG with stirring in a water-bath at 37° C. The capture of 3-0-MG is stopped by addition of 1 ml of cold PBS containing cytochalasine B. The kinetics of incubation was performed between 30 and 120 seconds. The microsomes were further rinsed 2 times with PBS, then dissolved in NaOH (1M) at 4° C., over night. The radioactivity was determined with a scintillation counter. 7.2—Assessment of the Rate of Transport of Macromolecules at the Level of Normal Human Keratinocytes The applied method was that of explants allowing to obtain, from a biopsy of human skin, keratinocytes in primary cultures. The assays were carried out on keratinocytes between the 2nd and the 4th passage in order to ensure a reproductibility between the different experiences. The keratinocytes were divided into multiwell plates (6 wells) at a rate of 10^5 cells per well in 1 ml of culture medium […] supplemented with insulin and hydrocortisone. The cells were incubated in the presence and absence of the investigated product. 7.2.1—Transport of Glucides (Glucose) The assay was carried out in triplicate on normal human keratinocytes in culture. • Charge 1: negative control not receiving any product. • Charge 2: positive control (0.25 mM Phloretin) • Charge 3: treated receiving the investigated product • Charges 6-8: treated with 0.25 mM phloretin and the investigated product (3 concentrations) The treatment of keratinocytes with the BB product in the presence and absence of 0.25 mM phloretin was carried out for 20 minutes at 37° C. The membrane microsomes were separated by differential centrifugation. The same protocol of capture of [3H] 3-0-Methyl-Glucose was adopted for the determination of the rate of transport of glucose. (cf. 6.1.1).
# [3] = tested on: microsomes of human keratinocytes; test: Transport of glucids (glucose), direct treatment of isolated microsomes; format: biochemical; conditions: for Capture of [^3H]3-O-MG: Phloretin 0.25 mM
# Method: 7.1—Assessment of the Rate of Transport of Macromolecules (Glucids, Lipids and Proteins) in a System of Isolated Microsomes. Direct Effect of the BB Product on Isolated Microsomes: The microsomes of human keratinocytes form a membrane fraction obtained by high-speed differential centrifugation of a cell homogenate. This preparation of microsomes requires the addition of exogenous cofactors such as NADPH. 7.1.1—Transport of Glucids (Glucose) The assay was performed in triplicate after the direct treatment of microsomes. • Charge 1: negative control not receiving any product. • Charge 2: positive control (0.25 mM phloretin) • Charges 3-5: treated with the investigated product (3 concentrations) • Charges 6-8: treated with 0.25 mM phloretin and with the investigated product (3 concentrations) The obtained microsomes from human keratinocytes in culture were washed 3 times with a PBS buffer without glucose then pre-incubated in 1 ml of the same buffer for 30 minutes at 37° C. Subsequently, this solution was discarded and the microsomes placed into the glucose-free PBS buffer containing 3-0-Methyl glucose (MG) and [^3H] 3-0-MG with stirring in a water-bath at 37° C. The capture of 3-0-MG is stopped by addition of 1 ml of cold PBS containing cytochalasine B. The kinetics of incubation was performed between 30 and 120 seconds. The microsomes were further rinsed 2 times with PBS, then dissolved in NaOH (1M) at 4° C., over night. The radioactivity was determined with a scintillation counter. The treatments of microsomes with the BB product alone or in the presence of phloretin were carried out at the same time as the introduction of [3H] 3-0-MG into the incubation medium. The protein assay was performed following the BRADFORD method. The increase in absorbance at 595 nm, determined with spectrophotometer, is proportional to the protein concentration.
# [4] = tested on: reconstructed CORNEA Skinethic (keratinocytes of the TR 146 line); test: Mucous tolerance: cytotoxicity (MTT colour) on reconstructed CORNEA Skinethic; format: cell-based, human; parameters: key to TOXICITY: NI = not irritant; I = irritant; VI = very irritant; conditions: for Colour of both cultures: MTT
# Method: 1. —Experimental Protocol
# Keratinocytes of the TR 146 line, spontaneously transformed, amplified, by cell culture in a defined modified MCDB 153 medium were used.
# When cultured on the interface air/liquid in a defined medium, these human keratinocytes form a multilayered epithelium without the cornea layer similar to the human cornea.
# The product to be investigated, in this case the BB product according to Example 3, is applied at a rate of 30 μL onto the surface of eight equivalent cultures using a micro-pipette. These cultures are subsequently incubated at 37° C., 5% of CO2, for 10 minutes, 1 hour, 3 hours and 24 hours, at a rate of two cultures by incubation period.
# Negative (buffered saline solution) and positive (SDS 0.5% and 1%) controls are prepared sterile and applied in the same way on two cultures, respectively.
# These cultures are subsequently incubated at 37° C., 5% of CO2, for 1 hour and 24 hours, at a rate of two cultures by incubation period.
# 2. —Assessment of the Cellular Viability
# The cellular viability is further measured qualitatively after labelling with a vital dye. The MTT system measures the mitochondrial dehydrogenase activity of living cells. The key component is the 3-[4,5-dimethylthiazol-2-yl]-2,5-diphenyl tetrazolium bromide or MTT.
# The salt solutions buffered with MTT, in the absence of phenol red, are yellow coloured. The mitochondrial deshydrogenases of living cells cut the tetrazolium cycle, thus inducing formation of purple formazan crystals, insoluble in aqueous solutions.
# The crystals formed by the viable cells are trapped in the polycarbonate filters which serve as support to epithelial cultures. The cultures turn to a uniform intense blue/purple colour when they are viable, but remain white/yellow in the case of cell mortality.
# The results are compared to negative and positive control substances.
# 0.15 ml of culture medium containing 10% vol/vol of MTT solution are pipetted under each filter/culture support. After an incubation of 30 min at room temperature, the colour of the different cultures is observed.
# Negative control cultures should show an intense blue/purple colour, proof of the viability of mucosa after being in contact for 24 hours.
# Positive control cultures should show a white colour, proof of the cellular mortality as from the 1st hour of contact.
smiles,measurement,setting,value
"O=C(CCc1ccc(O)cc1)c1c(O)cc(O)cc1O [Phloretin, phloretin]",Capture of [^3H]3-O-MG,[1]; 30 s,1 nmol/mg of proteins
same,Capture of [^3H]3-O-MG,[1]; 60 s,3 nmol/mg of proteins
same,Capture of [^3H]3-O-MG,[1]; 90 s,5 nmol/mg of proteins
same,Capture of [^3H]3-O-MG,[1]; 120 s,7 nmol/mg of proteins
same,rate of transport of glucose (in words),[1]; phloretin 0.25 mM alone,strongly inhibits
same,Capture of [^3H]3-O-MG,[2]; 30 s,6 nmol/mg of proteins
same,Capture of [^3H]3-O-MG,[2]; 60 s,8 nmol/mg of proteins
same,Capture of [^3H]3-O-MG,[2]; 90 s,9 nmol/mg of proteins
same,Capture of [^3H]3-O-MG,[2]; 120 s,10 nmol/mg of proteins
same,rate of transport of glucose (in words),[2]; phloretin 0.25 mM alone,strongly inhibits
same,Capture of [^3H]3-O-MG,[3]; 30 s,4 nmol/mg proteins
same,Capture of [^3H]3-O-MG,[3]; 60 s,6 nmol/mg proteins
same,Capture of [^3H]3-O-MG,[3]; 90 s,8 nmol/mg proteins
same,Capture of [^3H]3-O-MG,[3]; 120 s,8 nmol/mg proteins
same,rate of transport of glucose (in words),[3]; phloretin 0.25 mM alone,strongly inhibits
CCCCCCCCCCCCOS(=O)(=O)[O-].[Na+] [SDS],TOXICITY,[4]; SDS 0.5%,I
same,Colour of both cultures,"[4]; SDS 0.5%, 10 min",blue
same,Colour of both cultures,"[4]; SDS 0.5%, 1 h",white
same,Colour of both cultures,"[4]; SDS 0.5%, 3 h",white
same,TOXICITY,[4]; SDS 1%,VI
same,Colour of both cultures,"[4]; SDS 1%, 10 min",white
same,Colour of both cultures,"[4]; SDS 1%, 1 h",white
